The conditions of data set [1]: 900 mg SJW of another brand; absence of autoinduction; cited from earlier work.
The subject of data set [2] is CYP3A. Description: Oral midazolam microdose. In kind it is in vivo, human. The settings on record: for F GMR: GMR (90% CI); for bioavailability: F (absolute bioavailability).
The subject of data set [3] is CYP3A. Description: Limited-sampling strategy. The settings on record: human, in vivo, po, 30 ug.
Data set [4] relates to CYP3A. The settings on record: 900 mg SJW daily, same brand; cited from earlier work.
Data set [5] has as its system CYP3A. Description: Intravenous midazolam microdose. In kind it is in vivo, human.
The conditions of data set [6]: cited from earlier work.
[7] abbreviates: SJW 1800 + rifampin 600 for 7 days vs SJW 1800.

As to `NC(=O)N1c2ccccc2C=Cc2ccccc21` [carbamazepine], the “reduction of exposure to single carbamazepine doses” value in data set [1] is reported as 21%.

With `Cc1ncc2n1-c1ccc(Cl)cc1C(c1ccccc1F)=NC2` [midazolam], the “F GMR” value in the data set on CYP3A [2] (30 μg midazolam orally, SJW 1800 + rifampin 600 vs baseline) is listed as 0.2070 (0.1704–0.2516). In addition, in the data set on CYP3A [2] (30 μg midazolam orally, SJW 1800 vs baseline), the “F GMR” value is recorded as 0.4437 (0.3735–0.5271). In addition, in the data set with CYP3A [2] (30 μg midazolam orally, baseline, GM (95% CI)), the CL/F is recorded as 1649 (1290–2109) mL min^−1. The “further increase of midazolam CL orally” value in the data set with CYP3A [2] (setting [7]) is 3.06 fold. In the data set with CYP3A [2] (human, plasma, po, 30 ug), the area under the curve AUC(0-inf) (commonly total exposure, with the tail of the curve extrapolated) was found to be 0.303 ng·h/mL; the AUC(0-t) (commonly the area under the concentration-time curve up to a stated or last time point) was 0.258 ng·h/mL; the highest level (Cmax) was 0.139 ng/mL; the Vd/F (usually the apparent distribution volume after extravascular dosing) was 422 L. For the same compound, the bioavailability (in general, dose-corrected exposure relative to a reference, in per cent) in the data set on CYP3A [2] (human, plasma, po, 30 ug, 30 μg midazolam orally, SJW 1800 mg/day for 14 days, GM (95% CI)) is 15.6%. For the same compound, the bioavailability with CYP3A [2] (human, plasma, po, 30 ug, 30 μg midazolam orally, baseline, GM (95% CI)) is 35.1%. The AUC (commonly the area under the concentration-time curve, a measure of exposure) in the data set on CYP3A [3] was determined as 0.0657 ng·h/mL. Further, the “fold increase of midazolam clearance with a regular midazolam dose” value in the data set with CYP3A [4] is recorded as 4.22. In the data set with CYP3A [5] (setting [7]), the “further increase of midazolam CL i.v.” value turned out to be 1.43 fold. Further, in the data set on CYP3A [5] (human, plasma, intravenous, 10 ug), the AUC(0-inf) came out at 0.287 ng·h/mL. Moreover, in the data set on CYP3A [5] (human, plasma, iv, 10 ug), the AUC(0-inf) worked out at 0.334 ng·h/mL; the Vd (as a rule, the apparent volume that relates the amount in the body to the concentration in plasma or blood) amounted to 148 L; the half-life (as a rule, how long it takes for the measured level to halve) was 178 min.

Turning to `CO[C@H]1/C=C/O[C@@]2(C)Oc3c(C)c(O)c4c(O)c(c(/C=N/N5CCN(C)CC5)c(O)c4c3C2=O)NC(=O)/C(C)=C\C=C\[C@H](C)[C@H](O)[C@@H](C)[C@@H](O)[C@@H](C)[C@H](OC(C)=O)[C@@H]1C` [rifampin], in data set [6], the “daily doses at which maximum induction is already reached” value was 300 to 600 mg.

The values above are taken from article PMC11329750 (Clinical and Translational Science, 2024).
